Experimental data taken from article PMC2918654 (Bioorganic & medicinal chemistry, 2010).
Like-named read-outs stand apart in the source and are kept apart here. Where a SMILES comes first, the peptide text is derived from it. [ ]: non-standard residue; d: D form. The star is where a group is joined. Dmt = Cc1cc(O)cc(C)c1C[C@H](N)C(=O)O; Tic = O=C(O)[C@@H]1Cc2ccccc2CN1; NHBn = c1ccc(CN*)cc1

What was measured:
δ-opioid receptors [1] = molecular target: T1, δ-opioid receptors (Rattus norvegicus, UniProt P33533); assay: Competitive binding assay, δ-opioid receptors, [3H]deltorphin II; set-up: species or system Sprague-Dawley rats; conditions: for selectivity Ki^μ/Ki^δ: ratio of binding Ki values
μ-opioid receptors = μ-opioid receptors (Rattus norvegicus, UniProt P33535); assay: Competitive binding assay, μ-opioid receptors, [3H]DAMGO; set-up: species or system Sprague-Dawley rats
δ-opioid receptor [2] = molecular target: T2, δ-opioid receptor (Mus musculus, UniProt P32300); assay: Electrically stimulated mouse vas deferens; assay type: cell-based
μ-opioid receptor [3] = molecular target: T3, μ-opioid receptor (Cavia porcellus, UniProt P97266); assay: Electrically stimulated guinea-pig ileum; assay type: cell-based, guinea pigs
δ-opioid receptors [4] = molecular target: T1, δ-opioid receptors; conditions: ref Balboni et al.[14]; cited from earlier work
δ-opioid receptor [5] = molecular target: T2, δ-opioid receptor; conditions: δ antagonism, cited from earlier work
μ-opioid receptor [6] = molecular target: T3, μ-opioid receptor; conditions: μ antagonism, cited from earlier work
[7] = about 2 units lower than Tyr; cited from earlier work
δ opioid receptor = conditions: read-out: δ agonist IC50; cited from earlier work

T3 sequence (P97266 whole entry, looked up): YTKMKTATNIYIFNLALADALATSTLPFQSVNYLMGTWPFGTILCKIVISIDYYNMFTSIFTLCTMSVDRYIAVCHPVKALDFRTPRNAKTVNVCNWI
Chain of μ-opioid receptors (P33535 whole entry): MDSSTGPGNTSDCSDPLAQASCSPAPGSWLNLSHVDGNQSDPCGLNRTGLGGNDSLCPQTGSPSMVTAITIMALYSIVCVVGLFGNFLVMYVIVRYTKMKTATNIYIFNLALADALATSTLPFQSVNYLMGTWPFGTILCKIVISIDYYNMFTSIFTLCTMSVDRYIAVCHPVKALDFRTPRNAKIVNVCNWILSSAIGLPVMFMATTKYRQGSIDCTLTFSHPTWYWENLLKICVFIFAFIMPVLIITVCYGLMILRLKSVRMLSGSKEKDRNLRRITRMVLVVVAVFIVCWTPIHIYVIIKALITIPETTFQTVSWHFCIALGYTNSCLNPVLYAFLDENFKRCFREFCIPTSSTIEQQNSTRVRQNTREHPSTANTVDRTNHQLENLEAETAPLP
T2 sequence (P32300 whole entry): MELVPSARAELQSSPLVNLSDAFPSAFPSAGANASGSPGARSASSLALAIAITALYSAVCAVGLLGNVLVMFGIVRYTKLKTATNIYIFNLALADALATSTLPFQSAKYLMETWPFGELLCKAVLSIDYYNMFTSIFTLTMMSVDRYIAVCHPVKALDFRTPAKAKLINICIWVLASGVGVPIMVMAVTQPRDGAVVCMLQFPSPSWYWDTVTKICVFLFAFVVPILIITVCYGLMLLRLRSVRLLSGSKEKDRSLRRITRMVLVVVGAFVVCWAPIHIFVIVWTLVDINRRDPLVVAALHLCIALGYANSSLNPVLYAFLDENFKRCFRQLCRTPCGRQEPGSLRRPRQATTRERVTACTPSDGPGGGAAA
T1 sequence (P33533 whole entry): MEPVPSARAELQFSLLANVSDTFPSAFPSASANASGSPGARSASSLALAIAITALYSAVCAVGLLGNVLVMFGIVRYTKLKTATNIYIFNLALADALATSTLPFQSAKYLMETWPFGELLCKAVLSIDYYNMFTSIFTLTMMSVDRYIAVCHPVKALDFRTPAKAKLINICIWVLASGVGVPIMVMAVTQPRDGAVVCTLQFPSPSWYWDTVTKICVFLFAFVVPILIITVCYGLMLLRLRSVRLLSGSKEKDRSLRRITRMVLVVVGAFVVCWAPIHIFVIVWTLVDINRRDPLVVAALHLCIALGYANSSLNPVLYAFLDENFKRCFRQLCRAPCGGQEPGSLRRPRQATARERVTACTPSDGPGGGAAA

Question: With CC(C)[C@H](NC(=O)[C@H](CCC(=O)O)NC(=O)[C@H](Cc1ccccc1)NC(=O)[C@@H](C)NC(=O)[C@@H](N)Cc1c(F)cc(O)cc1F)C(=O)N[C@H](C(=O)NCC(N)=O)C(C)C [Compound 8, [Dft^1]Deltorphin B] as the compound, how does the Ki (δ-opioid receptors [1]) read?
Answer: The Ki was 0.241 ± 0.03 nM.

Question: What about the “selectivity Ki^μ/Ki^δ” value (δ-opioid receptors [1]) of the same compound?
Answer: The value was 640.

Question: What about the Ki (μ-opioid receptors) of the same compound?
Answer: The Ki was 154 ± 19 nM.

Question: And the IC50 (δ-opioid receptor [2])?
Answer: Its IC50 is 0.4 ± 0.08 nM.

Question: And the IC50 (μ-opioid receptor [3])?
Answer: The IC50 was 3560 ± 566 nM.

Question: With CC(C)[C@H](NC(=O)[C@H](CCC(=O)O)NC(=O)[C@H](Cc1ccccc1)NC(=O)[C@@H](C)NC(=O)[C@@H](N)Cc1ccc(O)cc1)C(=O)N[C@H](C(=O)NCC(N)=O)C(C)C [Compound 9, H-Tyr-D-Ala-Phe-Glu-Val-Val-Gly-NH2, reference compound] as the compound, how does the IC50 (μ-opioid receptor [3]) read?
Answer: The IC50 was > 10000 nM.

Question: With Cc1cc(O)cc(C)c1C[C@H](N)C(=O)N1Cc2ccccc2C[C@H]1C(=O)N[C@@H](CCCCN)C(=O)NCc1ccccc1 [Compound 10, H-Dmt-Tic-Lys-NH-Bzl] (H-[Dmt]-[Tic]-Lys-NHBn) as the compound, how does the “selectivity Ki^μ/Ki^δ” value (δ-opioid receptors [4]) read?
Answer: The value was 8.

Question: And the “functional bioactivity MVD pA2” value (δ-opioid receptor [5]; ref Balboni et al.[14])?
Answer: The value was 6.01.

Question: And the “functional bioactivity GPI pA2” value (μ-opioid receptor [6]; ref Balboni et al.[14])?
Answer: The value was 7.96.

Question: With NCCCC[C@H](NC(=O)[C@@H]1Cc2ccccc2CN1C(=O)[C@@H](N)Cc1c(F)cc(O)cc1F)C(=O)NCc1ccccc1 [Compound 11, H-Dft-Tic-Lys-NH-Bzl] as the compound, how does the Ki (δ-opioid receptors [1]) read?
Answer: The Ki was 153 ± 21 nM.

Question: What about the “selectivity Ki^μ/Ki^δ” value (δ-opioid receptors [1]) of the same compound?
Answer: The value was 7.

Question: What about the Ki (μ-opioid receptors) of the same compound?
Answer: Its Ki is 1030 ± 83 nM.

Question: Which results are given for NCCCC[C@H](NC(=O)[C@@H]1Cc2ccccc2CN1C(=O)[C@@H](N)Cc1ccc(O)cc1)C(=O)NCc1ccccc1 [Compound 12, H-Tyr-Tic-Lys-NH-Bzl] (H-Tyr-[Tic]-Lys-NHBn)?
Answer: Ki (δ-opioid receptors [1]): 63.9 ± 7.6 nM; selectivity Ki^μ/Ki^δ (δ-opioid receptors [1]): 26; Ki (μ-opioid receptors): 1650 ± 231 nM

Question: Which “functional bioactivity MVD pA2” value (δ-opioid receptor [5]; ref Salvadori et al.[15]) does the source give for Cc1cc(O)cc(C)c1C[C@@H](C(=O)N1Cc2ccccc2C[C@H]1C(=O)O)N(C)C [Compound 13, N,N(Me)2-Dmt-Tic-OH] here?
Answer: The value was 9.4.

Question: And the “functional bioactivity GPI pA2” value (μ-opioid receptor [6]; ref Salvadori et al.[15])?
Answer: Its value is 5.8.

Question: For Cc1cc(O)cc(C)c1C[C@@H](C(=O)N1Cc2ccccc2C[C@H]1C(N)=O)N(C)C [Compound 16, N,N(Me)2-Dmt-Tic-NH2], which “functional bioactivity MVD pA2” value (δ-opioid receptor [5]; ref Salvadori et al.[15]) is on record?
Answer: Its value is 9.9.

Question: And the “functional bioactivity GPI pA2” value (μ-opioid receptor [6]; ref Salvadori et al.[15])?
Answer: The value was 6.3.

Question: For N[C@@H](Cc1c(F)cc(O)cc1F)C(=O)O [Dft, 2′,6′-difluoro-L-tyrosine], which pKa [7] is on record?
Answer: Its pKa is 8.1.

Question: For H-Bcp-Tic-Phe-Phe-OH, which IC50 (δ opioid receptor) is on record?
Answer: Its IC50 is 3.42 nM.
